“And” between values parts separate entries of the source, which are not always exact repeats. Equal values may be shown once.
What was measured:
[1] = test system: HeLa S3 cells; assay: Global acetyl-lysine detection by Western blot; conditions: for relative lysine acetylation vs DMSO: HeLa S3, 1 mM, 16 h, replicates A/B
Description: HeLa S3 was grown in DMEM medium (PAN Biotech) supplemented with 10% FBS (PAN Biotech) and treated with drugs (final concentration of 0.1% DMSO) for indicated periods. […] The protein amount of cell lysates was determined by Bradford assay. […] Proteins were separated by SDS-PAGE and electro-transferred onto PVDF membranes. […] Acquisition and quantification of the band fluorescence intensities were carried out with the Odyssey (Licor) imaging system and corresponding software (v 3.0.29). Intensities of proteins were normalized to input beta-Actin and further normalized to the control treatments to calculate the relative acetylation change.

[2] = cited from earlier work
[3] = test system: MIER1; assay: Chemoproteomic competition pulldown assay (HDAC interactor); format: binding; conditions: iQ, SW620 lysate
Description: (§1) To identify proteins directly bound by lipoic acid, we employed a chemoproteomic competition assay. Briefly, (R/S)-LA was immobilized on sepharose beads via an amidation reaction to form an affinity matrix (abbreviated as iL; Fig. 1a). This affinity matrix can be incubated with cell lysate to pull down potential LA or LM target proteins and identify these targets via bottom-up proteomics. In a competition assay, free LA or LM were incubated with lysate at different concentrations before pulling down and quantifying target proteins. […] (Fig. 1b, see “Methods” for details). […] The lysate buffer used in this assay contains 1 mM DTT to mimic the intracellular reductive milieu and to reduce lipoic acid and LM. […] Additional competition assays performed in lung adenocarcinoma cell A549 lysate also identified HDAC1, HDAC2, and HDAC6 as targets (Supplementary Fig. 1b). Amongst the three cell lines tested, HDACs were the only confidently identified targets across the 1500–3000 proteins quantified in these assays. […] We validated the results by analogous pulldown competition assays using two other affinity matrices prepared via the immobilization of either the HDAC inhibitor Quisinostat (iQ) and an analog of the class IIa HDAC inhibitor Bürli’s 31[14] (iC)[12]. We have previously shown that these affinity matrices specifically bind to the active sites of HDACs and have used them for HDACi selectivity profiling. Indeed, binding of (R/S)-LA and (R/S)-LM to HDAC1, HDAC2, HDAC3, HDAC6, and, to a lesser extent, HDAC8 was confirmed in these assays (Supplementary Fig. 1c, d). No binding to class IIa HDACs or the recently discovered common HDAC inhibitor off-target MBLAC2 was observed (Supplementary Fig. 1e)[12]. […] This observation might reflect electrostatic repulsion between the HDAC10 active site gate-keeper glutamic acid residues[15],[16] and the terminal carboxylic acid of LA.
(§2) To assess the degree of protein depletion from lysates by the affinity matrix, a second pulldown (PDPD) with fresh beads was performed using the unbound protein fraction from the vehicle control flow through. The beads were washed (1 × 1 mL of lysis buffer without inhibitors and only 0.4% Igepal, 2 × 2 mL of lysis buffer without inhibitors and only 0.2% Igepal), and captured proteins were denatured with 8 M urea buffer, alkylated with 55 mM chloroacetamide and digested with Trypsin according to standard procedures. The resulting peptides were desalted on a C18 filter plate (Sep-Pak® tC18 µElution Plate, Waters), vacuum dried, and stored at −20 °C until LC–MSMS measurement.
(§3) For the competition assays, relative binding was calculated based on the protein intensity ratio to the DMSO control for every single inhibitor concentration. EC50 values were derived from a four-parameter log-logistic regression with variable slope (constrain: bottom > 0). The obtained EC50 values were multiplied with a protein-dependent correction factor (cf), resulting in the apparent Kd value (Kd^app). The correction factor is determined by calculating the ratio of the protein intensity of two consecutive pulldowns of the vehicle control sample[13]. Targets of the inhibitors were annotated manually according to published procedures[12],[46],[47]. […] Additionally, the number of unique peptides and MSMS counts per condition were taken into account. Positive target binding across several independent experiments performed with different cell lysates further substantiated our confidence for a true positive drug-target binding event.

[4] = test system: A549 cells; assay: CellRox deep red assay for tBuOOH-induced ROS; conditions: for tBuOOH-induced ROS (CellRox), relative to DMSO, Mean / tBuOOH-induced ROS (CellRox), relative to DMSO, replicate values: sheet 4c, DMSO mean = 1
Description: A549 cells were maintained in DMEM (Sigma) supplemented with 10% fetal bovine serum (Pan Biotech). […] The CellRox assay was performed according to the product guidelines (ThermoFisher). Briefly, cells were treated with lipoic acid, N-acetyl-cysteine (NAC), or vector control (DMSO) for 1 h, followed by a 2 h treatment with 200 µM tert-butyl hydroperoxide, and then stained with 5 µM CellRox Deep Red for 1 h. Cells were washed twice with FluoroBrite DMEM (ThermoFisher) supplemented with 10% FBS before imaging. CellRox Deep Red signal intensity was measured on a Leica DMI 6000 B epifluorescent microscope with a Cy5 filter set. […] Significance was calculated by ANOVA with a post hoc Dunnett’s multiple comparisons test against the DMSO control (GraphPad).

[5] = test system: A549 cells; assay: Arsenite-induced stress granule formation (G3BP1 immunofluorescence); format: cell-based; conditions: for arsenite-induced stress granule quantification (G3BP1), Mean / arsenite-induced stress granule quantification (G3BP1), Median / arsenite-induced stress granule quantification (G3BP1), individual values: sheet 4b; for arsenite-induced stress granule quantification (G3BP1), individual values: single data points
Description: The acetylation status of proteins can affect their macromolecular associations and the tendency of proteins to phase-separate into liquid condensates such as stress granules. […] After pre-incubation of cells with the compound, stress granule formation was induced using 30 min of arsenite treatment (1 mM). After treatment, cells were fixed for immunofluorescence detection of stress granules via the common stress granule marker protein G3BP1[21].
0.03 × 10^6 A549 cells were seeded at 4-chamber slides (Thermo, Nunc) and cultured at 37 °C overnight. Cells were treated with HDAC inhibitor SAHA and Lipoic acid or LM for 6 h, followed by 1 mM Arsenite for 30 min. Cells were fixed by 4% PFA and permeabilized by 0.5% Triton X-100/PBS. 10% Goat serum in PBS was used for blocking. After manually selecting an area with cell confluency of 50–80%, 16 pictures were taken randomly around the central point (ZEISS software in-built function). Stress granule marker G3BP1 (Aviva Systems Biology, ARP37713_T100) was visualized and quantified by ImageJ. Statistical analysis was performed with GraphPad Prism.

[6] = target: T1, HDAC3 (Homo sapiens, UniProt O15379); assay: Chemoproteomic competition pulldown assay; format: binding; conditions: iL, MV4-11 lysate
T1 construct: endogenous in cells; host or cells: MV4-11 lysate
Description: as §1, §2, §3

[7] = HeLa S3, time-dependent treatment, 5 mM

T1 sequence (O15379 whole entry): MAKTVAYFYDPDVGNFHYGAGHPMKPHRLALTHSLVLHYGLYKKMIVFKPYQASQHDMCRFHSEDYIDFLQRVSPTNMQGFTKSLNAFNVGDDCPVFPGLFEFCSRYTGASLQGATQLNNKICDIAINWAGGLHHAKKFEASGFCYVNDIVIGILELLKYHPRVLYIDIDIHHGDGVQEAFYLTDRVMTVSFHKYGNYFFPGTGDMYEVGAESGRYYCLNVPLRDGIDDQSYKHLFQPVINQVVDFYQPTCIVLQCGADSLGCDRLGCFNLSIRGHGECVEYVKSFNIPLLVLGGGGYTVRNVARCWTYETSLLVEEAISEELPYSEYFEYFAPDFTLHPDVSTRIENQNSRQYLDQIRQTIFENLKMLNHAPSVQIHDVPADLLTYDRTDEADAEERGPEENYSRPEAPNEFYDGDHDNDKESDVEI
T1 sequence (O75376 whole entry partner): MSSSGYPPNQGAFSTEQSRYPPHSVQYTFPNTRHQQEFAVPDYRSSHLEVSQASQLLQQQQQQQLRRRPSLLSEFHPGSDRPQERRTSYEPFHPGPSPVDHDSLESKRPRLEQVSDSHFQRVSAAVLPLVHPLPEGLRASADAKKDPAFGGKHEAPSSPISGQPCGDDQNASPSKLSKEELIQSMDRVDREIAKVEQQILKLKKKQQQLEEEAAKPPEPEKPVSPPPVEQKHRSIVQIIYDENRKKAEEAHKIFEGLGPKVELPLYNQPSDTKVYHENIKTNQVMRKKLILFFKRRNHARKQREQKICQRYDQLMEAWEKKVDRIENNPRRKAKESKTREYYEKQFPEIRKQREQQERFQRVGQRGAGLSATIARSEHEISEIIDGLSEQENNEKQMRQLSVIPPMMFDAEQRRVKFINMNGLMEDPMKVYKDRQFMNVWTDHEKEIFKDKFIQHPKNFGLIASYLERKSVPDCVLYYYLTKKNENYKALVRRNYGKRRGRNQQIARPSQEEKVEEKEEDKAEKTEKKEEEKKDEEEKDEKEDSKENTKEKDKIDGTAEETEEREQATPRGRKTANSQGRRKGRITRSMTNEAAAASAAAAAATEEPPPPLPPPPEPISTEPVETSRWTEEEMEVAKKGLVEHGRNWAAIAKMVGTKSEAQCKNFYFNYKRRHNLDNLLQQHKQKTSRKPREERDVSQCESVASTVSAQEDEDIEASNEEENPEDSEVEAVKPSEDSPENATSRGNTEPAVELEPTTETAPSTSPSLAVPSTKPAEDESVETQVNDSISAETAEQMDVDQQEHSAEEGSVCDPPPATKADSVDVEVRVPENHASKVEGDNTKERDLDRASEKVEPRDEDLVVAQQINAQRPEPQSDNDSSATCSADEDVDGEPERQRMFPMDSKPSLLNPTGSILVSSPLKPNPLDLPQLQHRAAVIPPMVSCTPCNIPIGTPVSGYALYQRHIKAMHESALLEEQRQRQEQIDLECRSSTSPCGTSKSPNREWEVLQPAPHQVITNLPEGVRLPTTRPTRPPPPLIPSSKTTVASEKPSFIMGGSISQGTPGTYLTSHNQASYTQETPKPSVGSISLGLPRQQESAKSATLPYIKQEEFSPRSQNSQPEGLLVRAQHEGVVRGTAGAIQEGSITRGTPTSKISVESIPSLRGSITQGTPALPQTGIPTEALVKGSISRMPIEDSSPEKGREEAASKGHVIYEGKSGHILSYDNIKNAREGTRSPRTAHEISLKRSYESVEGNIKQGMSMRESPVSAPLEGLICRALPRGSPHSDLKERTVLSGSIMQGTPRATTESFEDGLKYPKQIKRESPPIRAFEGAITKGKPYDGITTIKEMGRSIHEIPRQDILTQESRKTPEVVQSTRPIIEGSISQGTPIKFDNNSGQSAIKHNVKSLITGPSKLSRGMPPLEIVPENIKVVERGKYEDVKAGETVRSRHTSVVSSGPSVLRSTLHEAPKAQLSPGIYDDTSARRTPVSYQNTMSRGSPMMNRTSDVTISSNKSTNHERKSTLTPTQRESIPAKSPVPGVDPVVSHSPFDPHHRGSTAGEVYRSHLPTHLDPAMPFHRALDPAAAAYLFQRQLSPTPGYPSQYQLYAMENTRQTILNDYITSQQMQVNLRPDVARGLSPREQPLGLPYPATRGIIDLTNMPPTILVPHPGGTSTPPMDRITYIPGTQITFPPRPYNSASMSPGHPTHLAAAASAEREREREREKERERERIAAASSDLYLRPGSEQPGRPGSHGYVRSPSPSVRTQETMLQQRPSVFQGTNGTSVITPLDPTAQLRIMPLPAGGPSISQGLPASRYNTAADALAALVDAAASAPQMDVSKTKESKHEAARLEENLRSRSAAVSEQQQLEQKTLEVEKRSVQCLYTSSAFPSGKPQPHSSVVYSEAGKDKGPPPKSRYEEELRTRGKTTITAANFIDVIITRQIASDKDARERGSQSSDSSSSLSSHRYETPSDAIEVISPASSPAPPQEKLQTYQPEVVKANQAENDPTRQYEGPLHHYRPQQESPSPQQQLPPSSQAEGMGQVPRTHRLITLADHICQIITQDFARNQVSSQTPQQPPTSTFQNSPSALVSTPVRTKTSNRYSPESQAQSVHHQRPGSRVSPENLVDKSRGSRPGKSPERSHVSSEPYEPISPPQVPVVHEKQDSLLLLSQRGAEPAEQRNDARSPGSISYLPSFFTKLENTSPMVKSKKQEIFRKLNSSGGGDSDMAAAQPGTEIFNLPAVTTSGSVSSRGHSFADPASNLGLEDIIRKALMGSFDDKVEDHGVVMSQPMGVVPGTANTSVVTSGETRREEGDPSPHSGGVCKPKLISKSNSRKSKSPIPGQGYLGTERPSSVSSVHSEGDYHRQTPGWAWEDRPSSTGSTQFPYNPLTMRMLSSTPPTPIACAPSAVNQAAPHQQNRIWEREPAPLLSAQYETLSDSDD

With `O=C(O)CCCCC1CCSS1` (racemic) [(R/S)-LA, (R/S)-lipoic acid] as the molecule, how does the “relative lysine acetylation vs DMSO” value ([1]; 10-12 kDa bands) read?
The value was 5.9571 and 6.0208.

And the “relative lysine acetylation vs DMSO” value ([1]; 14-16 kDa bands)?
Its value is 4.6853 and 4.9960.

And the “relative lysine acetylation vs DMSO” value ([1]; 21-23 kDa bands)?
Its value is 2.3477 and 2.3498.

What about the “relative lysine acetylation vs DMSO” value ([1]; 24-26 kDa bands) of the same molecule?
Its value is 2.1045 and 2.1971.

And the “relative lysine acetylation vs DMSO” value ([1]; 49-51 kDa bands)?
Its value is 6.4530 and 6.1942.

What about the “relative lysine acetylation vs DMSO” value ([1]; 65-73 kDa bands) of the same molecule?
The value was 5.8639 and 5.7630.

And the “time of peak acetylation” value [1, 7]?
The value was 3 to 8 h.

And the “time to upregulation of acetylation on a broad range of proteins” value [1, 7]?
The value was no more than 1 h.

What about the peak plasma concentrations ([2]; clinically relevant doses 600 to 2400 mg/day, orally and intravenously) of the same molecule?
The peak plasma concentrations was 100 to 500 µM.

What about the peak plasma concentration ([2]; in humans) of the same molecule?
Its peak plasma concentration is “about 0.5 mM”.

And the “relative binding vs DMSO” value ([3]; log10 M -3.52288)?
The value was 0.1271.

What about the “relative binding vs DMSO” value ([3]; log10 M -4) of the same molecule?
Its value is 0.313.

And the “relative binding vs DMSO” value ([3]; log10 M -4.52288)?
Its value is 0.5121.

And the “relative binding vs DMSO” value ([3]; log10 M -5)?
The value was 0.4151.

What about the “relative binding vs DMSO” value ([3]; log10 M -5.52288) of the same molecule?
Its value is 0.7821.

And the “relative binding vs DMSO” value ([3]; log10 M -6)?
Its value is 0.8468.

What about the “relative binding vs DMSO” value ([3]; log10 M -6.52288) of the same molecule?
The value was 1.155.

What about the “relative binding vs DMSO” value ([3]; log10 M -7) of the same molecule?
The value was 0.8632.

What about the “levels of ROS (oxidative stress) relative to control” value ([4]; 100 µM drug pre-treatment, 2 h 200 µM tBuOOH) of the same molecule?
Its value is 60–70%.

And the “tBuOOH-induced ROS (CellRox), relative to DMSO, Mean” value ([4]; (R/S)-LA 10 ?M)?
The value was 0.7284.

What about the “tBuOOH-induced ROS (CellRox), relative to DMSO, replicate values” ([4]; (R/S)-LA 10 ?M) of the same molecule?
Its value is 0.6361 and 0.7994 and 0.7496.

What about the “tBuOOH-induced ROS (CellRox), relative to DMSO, Mean” value ([4]; (R/S)-LA 30 ?M) of the same molecule?
Its value is 0.7039.

And the “tBuOOH-induced ROS (CellRox), relative to DMSO, replicate values” ([4]; (R/S)-LA 30 ?M)?
Its value is 0.5919 and 0.6862 and 0.8337.

What about the “tBuOOH-induced ROS (CellRox), relative to DMSO, Mean” value ([4]; (R/S)-LA 100 ?M) of the same molecule?
The value was 0.6085.

What about the “tBuOOH-induced ROS (CellRox), relative to DMSO, replicate values” ([4]; (R/S)-LA 100 ?M) of the same molecule?
Its value is 0.608 and 0.6603 and 0.5572.

What about the “tBuOOH-induced ROS (CellRox), relative to DMSO, Mean” value ([4]; (R/S)-LA 300 ?M) of the same molecule?
Its value is 0.7233.

What about the “tBuOOH-induced ROS (CellRox), relative to DMSO, replicate values” ([4]; (R/S)-LA 300 ?M) of the same molecule?
The value was 0.909 and 0.609 and 0.652.

For `NC(=O)CCCCC1CCSS1` (racemic) [(R/S)-LM, (R/S)-lipoamide], which “arsenite-induced stress granule quantification (G3BP1), Mean” value ([5]; LM 100 uM) is on record?
The value was 50.8573.

What about the “arsenite-induced stress granule quantification (G3BP1), Median” value ([5]; LM 100 uM) of the same molecule?
Its value is 45.1.

And the “arsenite-induced stress granule quantification (G3BP1), individual values” ([5]; LM 100 uM)?
The value was 71 and 31.1875 and 45 and 63.6 and 40.5 and 81.5 and 35.3333 and 36 and 53.7143 and 35.8571 and 38.125 and 41.75 and 45.1 and 52.8 and 44.3 and 63.75 and 64.7778 and 49.1818 and 58.6 and 39.7273 and 76.2.

What about the “arsenite-induced stress granule quantification (G3BP1), Mean” value ([5]; LM 300 uM) of the same molecule?
The value was 32.0457.

What about the “arsenite-induced stress granule quantification (G3BP1), Median” value ([5]; LM 300 uM) of the same molecule?
The value was 30.3222.

And the “arsenite-induced stress granule quantification (G3BP1), individual values” ([5]; LM 300 uM)?
The value was 24.4375 and 30.6667 and 27.6923 and 44.9286 and 34.8 and 39.0909 and 43.75 and 27.5454 and 17.65 and 28.1111 and 42.3 and 13.75 and 29.6842 and 28.3684 and 12.875 and 35.8333 and 25.5 and 35.3077 and 30.4444 and 43.6667 and 30.2 and 36.2308 and 27.3889 and 58.875.

And the “arsenite-induced stress granule quantification (G3BP1), Mean” value ([5]; LM 1000 uM)?
Its value is 21.5611.

And the “arsenite-induced stress granule quantification (G3BP1), Median” value ([5]; LM 1000 uM)?
The value was 21.7363.

And the “arsenite-induced stress granule quantification (G3BP1), individual values” ([5]; LM 1000 uM)?
The value was 28.8889 and 25.875 and 20.6667 and 21.6154 and 30.8182 and 26.2857 and 7.556 and 13.9375 and 25.5714 and 28 and 21.25 and 20 and 16.75 and 17 and 9.615 and 15.3 and 22.6191 and 29.6154 and 21.8571.

And the “effect on stress granule numbers per cell” value ([5]; pre-incubation 6 h, then 1 mM arsenite 30 min)?
The value was “dose-dependent reduction of stress granule numbers per cell”.

And the “relative binding vs DMSO” value ([6]; log10 M -3.52288)?
The value was 0.06787.

And the “relative binding vs DMSO” value ([6]; log10 M -4)?
The value was 0.1873.

And the “relative binding vs DMSO” value ([6]; log10 M -4.52288)?
Its value is 0.229.

What about the “relative binding vs DMSO” value ([6]; log10 M -5) of the same molecule?
Its value is 0.6794.

What about the “relative binding vs DMSO” value ([6]; log10 M -5.52288) of the same molecule?
The value was 1.111.

What about the “relative binding vs DMSO” value ([6]; log10 M -6) of the same molecule?
Its value is 0.7918.

What about the “relative binding vs DMSO” value ([6]; log10 M -6.52288) of the same molecule?
Its value is 1.34.

And the “relative binding vs DMSO” value ([6]; log10 M -7)?
The value was 0.7531.

And the Kd ([6]; read-out: Kd app)?
Its Kd is 13 µM.

What about the “relative binding vs DMSO” value ([3]; log10 M -3.52288) of the same molecule?
Its value is 0.1808.

And the “relative binding vs DMSO” value ([3]; log10 M -4)?
The value was 0.

And the “relative binding vs DMSO” value ([3]; log10 M -4.52288)?
The value was 0.3328.

And the “relative binding vs DMSO” value ([3]; log10 M -5)?
The value was 0.7626.

What about the “relative binding vs DMSO” value ([3]; log10 M -5.52288) of the same molecule?
Its value is 0.9557.

And the “relative binding vs DMSO” value ([3]; log10 M -6)?
Its value is 1.104.

What about the “relative binding vs DMSO” value ([3]; log10 M -6.52288) of the same molecule?
The value was 0.974.

What about the “relative binding vs DMSO” value ([3]; log10 M -7) of the same molecule?
The value was 1.319.
